Consider three compounds from patent US10583120B2, “Composition having a muscle-relaxant and anti-inflammatory activity” (Kolinpharma S.p.A., priority 2014, dated 2020).

In series [1] the test system is human skeletal muscle myotubes. Briefly: Evaluation of the muscle-relaxant effect (Test 2), contractile activity of myotubes stimulated with carbacol. The class given is cell-based. As to conditions: myotubes with carbacol 3 mM, FIG. 5A; at least partly restored during washing. The protocol: The myoblasts were differentiated into myotubes in differentiation medium (DMEM: F12, with the addition of 2% of horse serum). The differentiated myotubes were used for the experiments from the fourth to the seventh day of maintenance in differentiation medium.
For the evaluation of the muscle-relaxant effect of MILESAX, human myoblasts were seeded onto microscope slides and, once they had reached at least about 70% confluence, they were maintained in differentiation medium for 4-7 days before being used for the experiments. The contractile activity of the myotubes was recorded with a TCS SP5 confocal microscope (Leica Microsystems) in transmitted-light mode with the 40× objective lens (HCX PL APO, 1.25 NA, Leica Microsystems) using the incubator associated with the microscope to maintain the cells under a controlled atmosphere (37° C., 5% CO2). […]
Not all the myotubes in the culture were capable of contracting, and similarly it was never possible to observe spontaneous contractions only in differentiation medium. […] The contractile activity of the identified active cell(s) was recorded with a confocal microscope in transmitted light, with an image acquired every 151 ms. […]

The subject of series [2] is TNFα release from differentiated THP-1 monocytes. Nature of the series: ELISA test (Test 1), release of TNFα into culture medium. The class given is cell-based, human. The note with it: positive control at 100 μM, LPS 1 μg/ml for 2 hours. For orientation: An ELISA detects its analyte on a solid surface through an enzyme-linked reagent.
For series [3], the system named is IL-1β release from differentiated THP-1 monocytes. Nature of the series: ELISA test (Test 1), release of IL-1β into culture medium. The note with it: positive control at 100 μM, LPS 1 μg/ml for 2 hours. The class given is cell-based, human.
Another series relates to THP-1 cells. As to conditions: positive controls at 100 μM. The source says: The absorbance measured correlates directly with the number of live cells.

`COc1c(O[C@@H]2O[C@H](CO)[C@@H](O)[C@H](O)[C@H]2O)cc2c(c1OC)-c1ccc(SC)c(=O)cc1[C@@H](NC(C)=O)CC2` [Muscoril, thiocolchicoside]: in series [1], the “frequency of contractions per unit time (contractions per minute)” value was “clear tendency”.

`O=C(O)Cc1ccccc1Nc1c(Cl)cccc1Cl` [diclofenac]: in series [2], the “release of TNFα relative to vehicle/control” value was “significantly reduced the release of TNFα”. In series [3], the “release of IL-1β” value is on record as “effective in reducing the release of IL-1β”. For the same compound, the “toxic effect on the cells (MTT test)” value in the series with THP-1 cells is listed as “no toxic effect on the cells”.

As to `CC(C)Cc1ccc(C(C)C(=O)O)cc1` (stereo not drawn) [ibuprofen], the “release of TNFα relative to vehicle/control” value in series [2] was “did not lead to any reduction in the release of TNFα”. For the same compound, the “release of IL-1β” value in series [3] is reported as “no effect on the release of IL-1β”.
